Assay results reported in the NIST ThermoML archive (doi:10.1016/j.fluid.2009.09.024).
Where “and” joins values, the source holds several entries; their conditions need not be identical. Equal entries are not always repeated. ± gives the expanded uncertainty stated by the source.

Experiments:
[1] = for vapor or sublimation pressure: Closed cell (Static) method; for mass density: Vibrating tube method
[2] = xn = mol fraction of the nth substance listed; conditions: Liquid, Vibrating tube method

Cc1ccccc1C [1,2-dimethylbenzene]
[1]
Conditions | mass density, 333.15 K | mass density, 353.15 K | vapor or sublimation pressure, 333.15 K | vapor or sublimation pressure, 353.15 K
Gas | – | 0.4397 ± 0.1 kg/m3 and 0.4571 ± 0.1 kg/m3 | – | –
Liquid | 845.8 ± 0.23 kg/m3 and 845.839 ± 0.23 kg/m3 | 828.5 ± 0.24 kg/m3 and 828.528 ± 0.24 kg/m3 | 5.32 ± 0.04 kPa and 5.44 ± 0.04 kPa | 12.8 ± 0.08 kPa and 12.66 ± 0.08 kPa

Cc1ccccc1C [1,2-dimethylbenzene] + Cc1ccccc1
mass density [kg/m3], [2]
Conditions | 333.15 K | 353.15 K
x2 = 0 | 845.8 ± 0.23 | 828.5 ± 0.24
x2 = 0.102 | – | 826.692 ± 0.24
x2 = 0.108 | 844.136 ± 0.24 | –
x2 = 0.202 | – | 824.931 ± 0.24
x2 = 0.203 | 842.673 ± 0.24 | –
x2 = 0.299 | – | 823.222 ± 0.24
x2 = 0.301 | 841.173 ± 0.24 | –
x2 = 0.4 | 839.661 ± 0.24 | 821.449 ± 0.24
x2 = 0.499 | 838.134 ± 0.24 | 819.705 ± 0.24
x2 = 0.6 | – | 817.918 ± 0.24
x2 = 0.601 | 836.576 ± 0.24 | –
x2 = 0.699 | 835.072 ± 0.24 | 816.176 ± 0.24
x2 = 0.799 | – | 814.417 ± 0.24
x2 = 0.8 | 833.533 ± 0.24 | –
x2 = 0.899 | – | 812.661 ± 0.24
x2 = 0.9 | 831.999 ± 0.24 | –

Cc1ccccc1C [1,2-dimethylbenzene] + O=S1(=O)CCCC1
[2], x1 = 1
Conditions | mass density [kg/m3]
333.15 K | 845.839 ± 0.23
353.15 K | 828.528 ± 0.24

Cc1cccc(C)c1 [1,3-dimethylbenzene]
[1]
Conditions | mass density, 333.15 K [kg/m3] | mass density, 353.15 K [kg/m3] | vapor or sublimation pressure, 333.15 K [kPa] | vapor or sublimation pressure, 353.15 K [kPa]
Gas | 0.252 ± 0.1 | 0.5448 ± 0.1 | – | –
Liquid | 829.305 ± 0.24 | 811.602 ± 0.24 | 6.59 ± 0.05 | 15.09 ± 0.09

Cc1cccc(C)c1 [1,3-dimethylbenzene] + O=S1(=O)CCCC1
[2], x1 = 1
Conditions | mass density [kg/m3]
333.15 K | 829.305 ± 0.24
353.15 K | 811.602 ± 0.24

c1ccccc1 [benzene]
[1]
Conditions | mass density, 333.15 K [kg/m3] | mass density, 353.15 K [kg/m3] | vapor or sublimation pressure, 333.15 K [kPa] | vapor or sublimation pressure, 353.15 K [kPa]
Gas | 1.5172 ± 0.1 | 2.69 ± 0.1 | – | –
Liquid | 835.696 ± 0.16 | 814.086 ± 0.16 | 52.45 ± 0.27 | 100 ± 0.51

c1ccccc1 [benzene] + CCCCCCCCC
[2], x1 = 1
Conditions | mass density [kg/m3]
333.15 K | 835.696 ± 0.16
353.15 K | 814.086 ± 0.16

CCCCCCCCC [nonane]
[1]
Conditions | mass density, 333.15 K [kg/m3] | mass density, 353.15 K [kg/m3] | vapor or sublimation pressure, 333.15 K [kPa] | vapor or sublimation pressure, 353.15 K [kPa]
Gas | 0.1868 | 0.4513 ± 0.1 | – | –
Liquid | 685.961 ± 0.25 | 669.919 ± 0.25 | 3.97 ± 0.03 | 10.28 ± 0.06

CCCCCCCCC [nonane] + c1ccccc1
mass density [kg/m3], [2]
Conditions | 333.15 K | 353.15 K
x2 = 0 | 685.961 ± 0.25 | 669.919 ± 0.25
x2 = 0.1 | 700.985 ± 0.38 | –
x2 = 0.101 | – | 684.481 ± 0.38
x2 = 0.199 | – | 698.728 ± 0.37
x2 = 0.2 | 715.957 ± 0.38 | –
x2 = 0.248 | – | 705.756 ± 0.36
x2 = 0.3 | – | 713.217 ± 0.36
x2 = 0.302 | 731.175 ± 0.37 | –
x2 = 0.399 | – | 727.581 ± 0.36
x2 = 0.404 | 746.508 ± 0.36 | –
x2 = 0.499 | – | 741.992 ± 0.35
x2 = 0.502 | 761.194 ± 0.36 | –
x2 = 0.599 | 775.788 ± 0.35 | 756.286 ± 0.35
x2 = 0.699 | 790.766 ± 0.35 | –
x2 = 0.701 | – | 771.023 ± 0.34
x2 = 0.799 | 805.683 ± 0.34 | 785.21 ± 0.34
x2 = 0.899 | 820.654 ± 0.34 | 799.582 ± 0.33
x2 = 0.94 | 826.713 ± 0.34 | –
x2 = 0.969 | 831.191 ± 0.34 | –

O=S1(=O)CCCC1 [sulfolane]
[1], Liquid
Conditions | mass density [kg/m3] | vapor or sublimation pressure [kPa]
333.15 K | 1231.12 ± 0.42 | 0.01 ± 0.01
353.15 K | 1214.39 ± 0.41 | 0.04 ± 0.01

O=S1(=O)CCCC1 [sulfolane] + Cc1cccc(C)c1
mass density [kg/m3], [2]
Conditions | 333.15 K | 353.15 K
x2 = 0 | 1231.12 ± 0.42 | 1214.39 ± 0.41
x2 = 0.01 | 1227.11 ± 0.9 | –
x2 = 0.015 | 1225.1 ± 0.9 | 1208.34 ± 0.9
x2 = 0.02 | 1223.09 ± 0.9 | 1206.33 ± 0.9
x2 = 0.03 | 1219.07 ± 0.9 | 1202.3 ± 0.9
x2 = 0.05 | – | 1194.25 ± 0.9
x2 = 0.1 | 1190.81 ± 0.89 | 1173.97 ± 0.89
x2 = 0.199 | 1150.86 ± 0.88 | 1133.93 ± 0.87
x2 = 0.299 | 1110.94 ± 0.86 | 1093.91 ± 0.86
x2 = 0.399 | 1070.45 ± 0.86 | 1053.33 ± 0.85
x2 = 0.501 | 1029.46 ± 0.84 | 1012.24 ± 0.84
x2 = 0.6 | 989.939 ± 0.84 | 972.621 ± 0.84
x2 = 0.7 | 949.485 ± 0.84 | 932.07 ± 0.84
x2 = 0.799 | 909.766 ± 0.83 | 892.257 ± 0.84
x2 = 0.9 | 869.443 ± 0.83 | 851.836 ± 0.84

O=S1(=O)CCCC1 [sulfolane] + Cc1ccccc1C
mass density [kg/m3], [2]
Conditions | 333.15 K | 353.15 K
x2 = 0 | 1231.12 ± 1.3 | 1214.39 ± 1.3
x2 = 0.01 | 1227.27 ± 1.5 | 1210.53 ± 1.5
x2 = 0.015 | 1225.35 ± 1.5 | 1208.6 ± 1.5
x2 = 0.02 | 1223.42 ± 1.5 | 1206.67 ± 1.5
x2 = 0.03 | 1219.57 ± 1.5 | 1202.81 ± 1.5
x2 = 0.1 | 1192.25 ± 1.4 | 1175.45 ± 1.4
x2 = 0.2 | 1153.84 ± 1.2 | 1136.98 ± 1.2
x2 = 0.3 | 1115.37 ± 1.1 | 1098.46 ± 1.1
x2 = 0.4 | 1076.99 ± 1 | 1060.02 ± 1
x2 = 0.499 | 1038.59 ± 0.94 | 1021.56 ± 0.93
x2 = 0.599 | 1000.24 ± 0.88 | 983.157 ± 0.88
x2 = 0.699 | 961.436 ± 0.85 | 944.296 ± 0.85
x2 = 0.801 | 922.401 ± 0.82 | 905.202 ± 0.82
x2 = 0.899 | 884.731 ± 0.81 | 867.477 ± 0.81

Cc1ccccc1 [toluene]
[1]
Conditions | mass density, 333.15 K [kg/m3] | mass density, 353.15 K [kg/m3] | vapor or sublimation pressure, 333.15 K [kPa] | vapor or sublimation pressure, 353.15 K [kPa]
Gas | 0.6829 ± 0.1 | 1.3863 ± 0.1 | – | –
Liquid | 830.467 ± 0.24 | 810.89 ± 0.24 | 18.62 ± 0.1 | 38.4 ± 0.2

Cc1ccccc1 [toluene] + Cc1ccccc1C
[2], x1 = 1
Conditions | mass density [kg/m3]
333.15 K | 830.467 ± 0.24
353.15 K | 810.89 ± 0.24
